pIC50: −log10 of the molar value. Where no end group is shown, it is not given here.
Target: T1, P-selectin (Homo sapiens, UniProt P16109)
T1 construct: from tissue; host or cells: outdated human platelet packs from a blood bank
T1 sequence (P16109 42-830): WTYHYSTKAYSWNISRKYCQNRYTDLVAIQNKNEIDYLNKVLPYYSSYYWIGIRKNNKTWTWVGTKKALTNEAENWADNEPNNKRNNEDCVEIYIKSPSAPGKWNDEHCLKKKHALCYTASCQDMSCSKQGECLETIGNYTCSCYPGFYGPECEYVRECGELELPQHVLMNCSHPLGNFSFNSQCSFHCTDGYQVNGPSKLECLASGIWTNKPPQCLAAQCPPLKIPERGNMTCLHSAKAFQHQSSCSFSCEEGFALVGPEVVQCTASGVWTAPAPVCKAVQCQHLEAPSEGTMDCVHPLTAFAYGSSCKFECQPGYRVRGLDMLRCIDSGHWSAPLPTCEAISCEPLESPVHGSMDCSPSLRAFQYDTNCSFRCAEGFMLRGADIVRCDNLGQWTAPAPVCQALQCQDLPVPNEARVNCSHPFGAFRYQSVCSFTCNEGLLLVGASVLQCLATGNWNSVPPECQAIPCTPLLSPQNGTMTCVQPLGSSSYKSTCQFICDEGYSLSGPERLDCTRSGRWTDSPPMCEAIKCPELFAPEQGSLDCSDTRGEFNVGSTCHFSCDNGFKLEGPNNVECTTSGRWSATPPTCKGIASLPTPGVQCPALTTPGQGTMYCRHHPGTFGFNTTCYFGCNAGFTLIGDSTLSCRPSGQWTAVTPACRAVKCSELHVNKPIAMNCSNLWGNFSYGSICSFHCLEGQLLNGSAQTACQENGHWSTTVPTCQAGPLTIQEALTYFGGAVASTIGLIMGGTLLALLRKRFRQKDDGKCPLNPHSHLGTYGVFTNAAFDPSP
Assay: Inhibition of binding of human neutrophils to P-selectin (neutrophil adhesion to purified immobilized P-selectin, myeloperoxidase readout)
Assay type: cell-based
Details: P-selectin purified from human platelets, plated at 5 micrograms/mL, peptides tested 1.0 mM to 0.001 mM
Source text: Peptides can be screened for their ability to inhibit adhesion to cells, for example, neutrophil adhesion to purified P-selectin immobilized on plastic wells, using the assay described by Geng, et al., Nature 343, 757-760 1990). Human neutrophils are isolated from heparinized […] blood by density gradient centrifugation on Mono-Poly resolving media, Flow Laboratories. Neutrophil suspensions are greater than 98% pure and greater than 95% viable by trypan blue exclusion. For adhesion assays, neutrophils are suspended at a concentration of 2×10^6 cells/mL in Hanks' balanced salt solution containing 1.26 mM Ca^2+ and 0.81 mM Mg^2+ (HBSS, Gibco) with […] human serum albumin (HBSS/HSA). Adhesion assays are conducted in triplicate in 96-well microtiter plates, Corning, incubated at 4° C. overnight with 50 microliters of various protein solutions. P-selectin is isolated from human platelet lysates by immunoaffinity chromatography on antibody S12-Sepharose™ and ion-exchange chromatography on a Mono-Q™ column (FLPC, Pharmacia Fine Chemicals), as follows. Outdated human platelet packs (100 units) obtained from a blood bank and stored at 4° C. are pooled, adjusted to 5 mM EDTA at pH 7.5, centrifuged at 4,000 rpm for 30 minutes in 1 liter bottles, then washed three times with 1 liter of 0.1M NaCl, 20 mM Tris pH 7.5 (TBS), 5 mM EDTA, 5 mM benzamidine. The pellets are then resuspended in a minimum amount of wash buffer and made 1 mM in DIFP, then frozen in 50 mL screwtop tubes at -80° C. The frozen platelets are thawed and resuspended in 50 mL TBS, 5 mM benzamidine, 5 mM EDTA pH 7.5, […]. The suspension is frozen and thawed two times in a dry ice-acetone bath using a 600 mL lyophilizing flask, then homogenized in a glass/teflon mortar and pestle and made 1 mM in DIFP. The NaCl concentration is adjusted to 0.5M with a stock solution of 4M NaCl. After stirring the suspension at 4° C., it is centrifuged in polycarbonate tubes at 33,000 rpm for 60 minutes at 4° C. The supernatant (0.5M NaCl wash) is removed and saved; this supernatant contains the soluble form of P-selectin. Care is taken not to remove the top part of the pellet with the supernatant. The pellets are then homogenized in extraction buffer (TBS, 5 mM benzamidine, 5 mM EDTA, pH 7.5, 100 μM leupeptin, 2% Triton X-100). After centrifugation at 19,500 rpm for 25 minutes at 4° C., the supernatant is removed. The extraction procedure is repeated with the pellet and the supernatant is combined with the first supernatant. The combined extracts, which contain the membrane form of P-selectin, are adjusted to 0.5M NaCl. The soluble fraction (0.5M NaCl wash) and the membrane extract (also adjusted to 0.5M NaCl) are absorbed with separate pools of the monoclonal antibody S12 (directed to P-selectin) previously coupled to Affigel (Biorad) at 5 mg/mL for 2 hours at 4° C. After letting the resins settle, the supernatants are removed. The S12 Affigel containing bound GMP-140 is then loaded into a column and washed overnight at 4° C. with 400 mL of 0.5M NaCl, 20 mM Tris pH 7.5, 0.01% Lubrol PX. Bound P-selectin is eluted from the S12 Affigel with 100 mL of 80% ethylene glycol, 1 mM MES pH 6.0, 0.01% Lubrol PX. Peak fractions with absorbance at 280 nm are pooled. Eluates are dialyzed against TBS with 0.05% Lubrol, then applied to a Mono Q column (FPLC from Pharmacia). The concentrated protein is step eluted with 2M NaCl, 20 mM Tris pH 7.5 (plus 0.05% Lubrol PX for the membrane fraction). Peak fractions are dialyzed into TBS pH 7.5 (plus 0.05% Lubrol PX for the membrane fraction). P-selectin is plated at 5 micrograms/mL and the control proteins: human serum albumin (Alb), platelet glycoprotein IIb/IIIa (IIb), von Willsbrand factor (vWF), fibrinogen (FIB), thrombomodulin (TM), gelatin (GEL) or human serum (HS), are added at 50 micrograms/mL. […]

Q: With “SKKKLALCF-NH2 [SEQ ID NO: 29, SKKKLALCF--NH2]” as the substance, how does the pIC50 read?
A: 4.19

Q: With “SKKKLALCI-NH2 [SEQ ID NO: 30, SKKKLALCI--NH2]” as the substance, how does the pIC50 read?
A: 3.06

Q: With “SKKKLALCY-NH2 [SEQ ID NO: 31, SKKKLALCY--NH2]” as the substance, how does the pIC50 read?
A: 4.72

Q: How did the pIC50 turn out when “SKKKLALFY-NH2 [SEQ ID NO: 32, SKKKLALFY--NH2]” was run?
A: 4.82

Q: “SKKKLALHY-NH2 [SEQ ID NO: 36, SKKKLALHY--NH2]” was tested. Which pIC50 did it give?
A: 3.75

Q: How did the pIC50 turn out when “SKKKLALIV-NH2 [SEQ ID NO: 33, SKKKLALIV--NH2]” was run?
A: 3.41

Q: With “SKKKLALIY-NH2 [SEQ ID NO: 35, SKKKLALIY--NH2]” as the substance, how does the pIC50 read?
A: 4.37

Q: “SKKKLALLY-NH2 [SEQ ID NO: 38, SKKKLALLY--NH2]” was tested. Which pIC50 did it give?
A: 3.88

Q: How did the pIC50 turn out when “SKKKLALTY-NH2 [SEQ ID NO: 41, SKKKLALTY--NH2]” was run?
A: 3.37

Q: With “SKKKLALVY-NH2 [SEQ ID NO: 40, SKKKLALVY--NH2]” as the substance, how does the pIC50 read?
A: 3.63

Q: How did the pIC50 turn out when “SKKKLAPCY-NH2 [SEQ ID NO: 42, SKKKLAPCY--NH2]” was run?
A: 3.05

Q: With “SKKKLFLCY-NH2 [SEQ ID NO: 43, SKKKLFLCY--NH2]” as the substance, how does the pIC50 read?
A: 4.02

Q: How did the pIC50 turn out when “SKKKLHLCY-NH2 [SEQ ID NO: 44, SKKKLHLCY--NH2]” was run?
A: 3.68

Q: How did the pIC50 turn out when “SKKKLILCY-NH2 [SEQ ID NO: 45, SKKKLILCY--NH2]” was run?
A: 4.02

Q: With “SKKKLQACY-NH2 [SEQ ID NO: 46, SKKKLQACY--NH2]” as the substance, how does the pIC50 read?
A: 3.48

Q: “SKKQLALCY-NH2 [SEQ ID NO: 48, SKKQLALCY--NH2]” was tested. Which pIC50 did it give?
A: 3.71

Q: With “SKKRLALCY-NH2 [SEQ ID NO: 50, SKKRLALCY--NH2]” as the substance, how does the pIC50 read?
A: 5.40

Q: How did the pIC50 turn out when “SKLKLALCY-NH2 [SEQ ID NO: 52, SKLKLALCY--NH2]” was run?
A: 5.05

Q: “SKRKLALCY-NH2 [SEQ ID NO: 54, SKRKLALCY--NH2]” was tested. Which pIC50 did it give?
A: 5.40

Q: “SKRKRALCY-NH2 [SEQ ID NO: 56, SKRKRALCY--NH2]” was tested. Which pIC50 did it give?
A: 4.62

Q: “SKRRLALCY-NH2 [SEQ ID NO: 58, SKRRLALCY--NH2]” was tested. Which pIC50 did it give?
A: 5.10

Q: “SKRRLALSY-NH2 [SEQ ID NO: 59, SKRRLALSY--NH2]” was tested. Which pIC50 did it give?
A: 3.20

Q: With “SKSKLALCY-NH2 [SEQ ID NO: 60, SKSKLALCY--NH2]” as the substance, how does the pIC50 read?
A: 3.07

Q: How did the pIC50 turn out when “SRKKLALCY-NH2 [SEQ ID NO: 64, SRKKLALCY--NH2]” was run?
A: 4.80

Q: With “SRKRLALCY-NH2 [SEQ ID NO: 66, SRKRLALCY--NH2]” as the substance, how does the pIC50 read?
A: 5.52

Q: With “SRKRLALSY-NH2 [SEQ ID NO: 67, SRKRLALSY--NH2]” as the substance, how does the pIC50 read?
A: 3.23

Q: How did the pIC50 turn out when “SRRKLALCY-NH2 [SEQ ID NO: 69, SRRKLALCY--NH2]” was run?
A: 4.85

Q: How did the pIC50 turn out when “SSKKLALCY-NH2 [SEQ ID NO: 70, SSKKLALCY--NH2]” was run?
A: 3.55

— patent publication US5710123A, “Peptide inhibitors of selectin binding” (Centocor, Inc., priority 1995, dated 1998)
